# In patent US9643969B2, “(aza)indolizine derivative and pharmaceutical use thereof” (KISSEI PHARMACEUTICAL CO., LTD., priority 2010, dated 2017):
# Legend:
# [1] = target: T1, Xanthine oxidase (from bovine milk) (Bos taurus, UniProt P80457); assay: Xanthine oxidase inhibitory activity; assay type: biochemical; conditions: xanthine 200 μM added at 100 μL/well, 10 minutes at room temperature, absorbance at 290 nm
# T1 construct: Xanthine oxidase (from bovine milk, manufactured by Sigma); purchased Sigma; host or cells: bovine milk
# T1 sequence (P80457 whole entry): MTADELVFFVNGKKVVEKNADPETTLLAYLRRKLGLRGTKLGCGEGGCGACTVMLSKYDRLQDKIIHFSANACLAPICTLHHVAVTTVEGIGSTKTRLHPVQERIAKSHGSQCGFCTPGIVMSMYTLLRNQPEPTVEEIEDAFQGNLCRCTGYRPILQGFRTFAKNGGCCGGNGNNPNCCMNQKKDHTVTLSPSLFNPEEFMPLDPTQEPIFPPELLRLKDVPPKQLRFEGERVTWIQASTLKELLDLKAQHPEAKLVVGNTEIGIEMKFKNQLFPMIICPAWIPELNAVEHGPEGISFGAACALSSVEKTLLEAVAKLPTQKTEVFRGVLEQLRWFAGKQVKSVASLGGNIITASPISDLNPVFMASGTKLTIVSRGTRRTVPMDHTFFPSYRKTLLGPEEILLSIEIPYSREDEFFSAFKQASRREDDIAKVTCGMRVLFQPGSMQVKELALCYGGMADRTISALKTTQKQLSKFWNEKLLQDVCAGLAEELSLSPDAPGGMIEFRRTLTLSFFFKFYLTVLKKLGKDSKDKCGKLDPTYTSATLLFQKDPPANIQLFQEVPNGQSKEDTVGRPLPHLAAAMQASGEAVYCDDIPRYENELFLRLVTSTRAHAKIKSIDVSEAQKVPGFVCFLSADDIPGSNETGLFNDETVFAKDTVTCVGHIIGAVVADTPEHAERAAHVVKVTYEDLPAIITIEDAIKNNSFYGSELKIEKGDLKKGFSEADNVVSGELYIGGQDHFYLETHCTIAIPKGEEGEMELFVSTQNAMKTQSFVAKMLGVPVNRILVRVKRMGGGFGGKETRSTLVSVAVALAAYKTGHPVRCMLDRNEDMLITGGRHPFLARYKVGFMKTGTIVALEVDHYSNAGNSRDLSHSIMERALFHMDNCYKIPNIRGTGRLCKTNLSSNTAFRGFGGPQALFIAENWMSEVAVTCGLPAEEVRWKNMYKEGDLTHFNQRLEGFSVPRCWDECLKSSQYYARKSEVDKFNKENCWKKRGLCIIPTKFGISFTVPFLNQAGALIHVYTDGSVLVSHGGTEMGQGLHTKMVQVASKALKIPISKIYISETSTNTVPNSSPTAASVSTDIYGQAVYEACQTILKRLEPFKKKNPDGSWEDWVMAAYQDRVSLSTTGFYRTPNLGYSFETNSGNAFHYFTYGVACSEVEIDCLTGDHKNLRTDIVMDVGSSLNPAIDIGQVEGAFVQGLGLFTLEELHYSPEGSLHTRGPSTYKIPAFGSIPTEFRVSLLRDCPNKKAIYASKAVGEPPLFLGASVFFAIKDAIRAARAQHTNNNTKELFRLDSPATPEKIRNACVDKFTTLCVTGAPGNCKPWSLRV
# Procedure: Xanthine Oxidase Inhibitory Activity
# (1) Preparation of Test Compounds
# Test compounds were dissolved in dimethyl sulfoxide (DMSO) (manufactured by Wako pure chemical) at 40 mM concentration and then diluted to intended concentrations with phosphate-buffered saline (PBS).
# (2) Method of Measurement
# Xanthine oxidase (from bovine milk, manufactured by Sigma) was prepared with phosphate-buffered saline (PBS) at 0.02 units/mL, and then the solution was added to 96-well plates at 50 μL/well. In addition, test compounds diluted with PBS were added at 50 μL/well. Xanthine (manufactured by Wako pure chemical) at 200 μM prepared with PBS was added at 100 μL/well, and the reaction was conducted for 10 minutes at room temperature. Absorbance at 290 nm was measured by using a microplate reader SpectraMax Plus 384 (manufactured by Molecular device). The absorbance under a condition without xanthine is 0%, and control without test compounds is 100%. Fifty % inhibitory concentration of a test compound (IC50) was calculated (Table 4). “Ex. No” in the table indicates Example number.
# human URAT1 = target: T2, human URAT1 (Homo sapiens, UniProt Q96S37); assay: Inhibitory activity of uric acid transport with human URAT1-expressing cells; assay type: cell-based; conditions: 10 μM test compound; URAT1-expressing HEK293 cells; 14C uric acid 50 μM, 2 minutes at 37° C.; read-out: percent inhibition of uric acid uptake
# T2 construct: expressed in transfected cells; host or cells: HEK293 cells
# T2 sequence (Q96S37 1-553): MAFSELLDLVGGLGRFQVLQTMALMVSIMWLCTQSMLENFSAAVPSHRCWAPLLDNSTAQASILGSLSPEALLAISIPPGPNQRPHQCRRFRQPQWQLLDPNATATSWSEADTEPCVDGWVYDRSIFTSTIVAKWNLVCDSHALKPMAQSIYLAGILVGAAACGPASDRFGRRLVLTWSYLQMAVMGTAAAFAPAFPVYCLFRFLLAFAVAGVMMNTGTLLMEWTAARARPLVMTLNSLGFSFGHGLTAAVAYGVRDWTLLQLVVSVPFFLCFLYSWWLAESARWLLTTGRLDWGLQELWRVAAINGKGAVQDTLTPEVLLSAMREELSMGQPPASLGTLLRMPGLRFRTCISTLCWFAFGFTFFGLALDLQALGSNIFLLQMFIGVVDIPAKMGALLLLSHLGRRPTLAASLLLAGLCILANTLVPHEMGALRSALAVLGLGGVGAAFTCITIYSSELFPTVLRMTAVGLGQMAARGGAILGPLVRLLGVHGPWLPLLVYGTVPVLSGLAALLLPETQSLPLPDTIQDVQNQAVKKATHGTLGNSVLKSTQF
# Procedure: Inhibitory Activity of Uric Acid Transport with Human URAT1-Expressing Cells
# (1) Cells Used in the Test
# URAT1-expressing HEK293 cells (HEK293 cells transfected with vector containing human URAT1 cDNA) and control cells (HEK293 cells transfected with vector alone) were used.
# URAT1-expressing cells and control cells were seeded in collagen I-coated 24-well plates (manufactured by BD FALCON) at 1 to 4×10^5 cells/well, and cultured in CO2 incubator (37° C., CO2: 5%) for 1 to 3 days, and then the following measurement of uric acid transport was conducted. In addition, Dulbecco's Modified Eagle Medium (manufactured by Invitrogen) containing 9% fetal bovine serum (manufactured by Invitrogen), antibiotic-antimycotic (manufactured by Invitrogen) and 2 mmol/L L-glutamine were used for the culture.
# (2) Preparation of Test Compounds
# ^14C-labeled uric acid (^14C uric acid) (manufactured by American Radiolabeled Chemicals, Inc.) was dissolved in Hanks' balanced salt solution (HBSS) (manufactured by Invitrogen) to prepare HBSS containing ^14C uric acid at 50 μM. Test compounds were dissolved in DMSO and then diluted to 1000-fold with the prepared HBSS containing ^14C uric acid above to prepare ^14C uric acid solution containing the indicated concentration of test compounds (final concentration of DMSO: 0.1%). ^14C uric acid solution containing 0.1% DMSO was prepared as a control.
# (3) Measurement of Uric Acid Transport
# After the medium was removed from the plates in which cells were seeded, and 1 mL of HBSS was added to the cells. After the HBSS was removed, 0.3 mL of HBSS was newly added to the cells, which were incubated at 37° C. for 15 minutes. After the HBSS was removed, 0.3 mL of ^14C uric acid solution containing 0.1% DMSO or test compounds was added to the cells, which were then incubated at 37° C. for 2 minutes. After the incubation, the solution was removed, and the cells were washed once with 1 mL of ice-cold phosphate-buffered saline containing 0.2% BSA, and washed twice with 1 mL of ice-cold PBS. After the PBS was removed, the cells were lysed by addition of 0.5 mL of 0.1 mol/L NaOH aqueous solution for each well. The cell lysates (0.3 mL/well) were transferred into glass vials, and mixed with 10 mL of a scintillator (Hionic-Fluor, manufactured by Perkin Elmer). The radioactivity was measured by means of a liquid scintillation counter.
# (4) Protein Determination
# Protein concentration in the cell lysates was determined by BCA Protein Assay Kit (manufactured by Pierce) and then amount of protein (mg/well) was calculated.
# (5) Calculation of the Percent Inhibition of Uric Acid Uptake for Each Compound
# Uric acid uptake activity in each well was calculated by the following formula. Uric acid uptake activity (p mol/mg protein)=radioactivity (dpm/well)/[amount of protein (mg/well)×concentration of radioactivity in HBSS containing ^14C uric acid (dpm/p mol)]
# Percent inhibition was calculated according to the following formula. Percent inhibition (%)=[1−(B−C)/(A−C)]×100 • A: Uric acid uptake activity in URAT1-expressing HEK293 cells in the presence of 0.1% DMSO • B: Uric acid uptake activity in URAT1-expressing HEK293 cells in the presence of test compounds • C: Uric acid uptake activity in control cells in the presence of 0.1% DMSO (6) Results
# [2] = Hypouricemic effect (serum uric acid levels in rats); assay type: in vivo; conditions: oral administration at 1 mg/kg; male CD (SD) IGS rats; serum at 2 hours after administration
# Procedure: (1) Method of Measurement
# Test compounds (1 mg/kg) suspended in 0.5% methylcellulose solution were orally administered to overnight fasted male CD (SD) IGS rats (5-week-old, Charles River Japan). At 2 hours after administration, blood was collected under ether anesthesia from abdominal aorta, and serum was separated according to a general method. Serum uric acid levels were determined by use of uric acid measurement kit (Uric acid C-Test Wako: manufactured by Wako pure chemical), and percent decrease in uric acid was calculated according to the formula described below. Percent decrease in uric acid (%)=(Serum uric acid levels in control animals−Serum uric acid levels in animals administered test compounds)×100/Serum uric acid levels in control animals (2) Results
# Acute toxicity test = assay type: in vivo; conditions: 300 mg/kg orally, male ICR mice, 24 hours after administration
# Procedure: Test compounds of Examples 2 and 12 (300 mg/kg) suspended in 0.5% methylcellulose solution were orally administered to male ICR mice (7-week-old, 5 mice per group), and the general condition during 24 hours after administration was observed.
SMILES,IC50 [1],inhibition at 10 µM (human URAT1),percent decrease in uric acid [2],general condition (Acute toxicity test)
N#Cc1cc(-c2ccc(C(=O)O)cc2)n2ncccc12 [Example 10],12 nM,,,
Cc1ccc2c(-c3ccc(C(=O)O)c(O)c3)cc(C#N)n2c1C [Example 16],13 nM,≥ 50%,,
N#Cc1cc(-c2ccc(C(=O)O)c(O)c2)c2ccccn12 [Example 8],12 nM,≥ 50%,,
N#Cc1cc(-c2ccc(C(=O)O)c(O)c2)n2ncccc12 [Example 12],4 nM,≥ 50%,,no abnormalities in general conditions were observed
"N#Cc1cc(-c2ccc(C(=O)O)c(O)c2)c2cccnn12 [Example 2, 4-(7-Cyanopyrrolo[1,2-b]pyridazine-5-yl)-2-hydroxy benzoic acid]",5 nM,,,no abnormalities in general conditions were observed
"N#Cc1cn(-c2ccc(C(=O)O)c(O)c2)c2cccnc12 [Example 15, 4-(3-Cyanopyrrolo[3,2-b]pyridine-1-yl)-2-hydroxy benzoic acid]",10 nM,,,

# Second part, led by results:
IC50 [1],inhibition at 10 µM (human URAT1),SMILES,percent decrease in uric acid [2],general condition (Acute toxicity test)
10 nM,,"Cc1ccnn2c(-c3ccc(C(=O)O)cc3)cc(C#N)c12 [Example 11, 4-(5-Cyano-4-methylpyrrolo[1,2-b]pyridazine-7-yl)benzoic acid]",,
5 nM,≥ 50%,Cc1ccc2c(-c3ccc(C(=O)O)c(O)c3)cc(C#N)n2n1 [Example 3],not less than 60%,
7 nM,,"N#Cc1cc(-c2ccc(C(=O)O)cc2)c2cccnn12 [Example 1, 4-(7-Cyanopyrrolo[1,2-b]pyridazine-5-yl)benzoic acid]",,
4 nM,≥ 50%,N#Cc1cc(-c2ccc(C(=O)O)c(O)c2)c2ccc(F)cn12 [Example 9],,
3 nM,≥ 50%,COc1ccc2c(-c3ccc(C(=O)O)c(O)c3)cc(C#N)n2n1 [Example 6],,
8 nM,,N#Cc1cc(-c2ccc(C(=O)O)cc2)c2ccccn12 [Example 7],,
